Measurements: the NIST ThermoML archive (doi:10.1016/j.jct.2016.04.003)
Numbers after ± are expanded uncertainties.

What was measured:
[1] = refractive index (Na D-line) (dimensionless); conditions: 99 kPa, Liquid, Standard Abbe refractometry
[2] = for surface tension liquid-gas: Drop volume; for viscosity: Capillary tube (Ostwald / Ubbelohde) method
[3] = xn = mol fraction of the nth substance listed; conditions: x2 = 0; for surface tension liquid-gas: Drop volume; for viscosity / speed of sound / mass density: 99 kPa, Liquid; for viscosity: Capillary tube (Ostwald / Ubbelohde) method; for speed of sound: Frequency=3 MHz, Sing-around technique in a fixed-path interferometer; for mass density: Vibrating tube method
[4] = refractive index (Na D-line) (dimensionless); xn = mol fraction of the nth substance listed; conditions: 99 kPa, Liquid, Standard Abbe refractometry, x2 = 0

Structure (SMILES): CCCC[n+]1ccccc1.F[B-](F)(F)F [1-butylpyridinium tetrafluoroborate]
- refractive index ([1]; 293.15 K): 1.44719 ± 0.00037

Structure (SMILES): O [water]
- surface tension liquid-gas ([2]; 293.15 K): 72.7 ± 0.8 mN/m
- viscosity ([2]; 293.15 K, 99 kPa, Liquid): 1.002 ± 0.08 mPa·s
- surface tension liquid-gas ([2]; 303.15 K): 71.1 ± 0.8 mN/m
- viscosity ([2]; 303.15 K, 99 kPa, Liquid): 0.797 ± 0.064 mPa·s
- surface tension liquid-gas ([2]; 313.15 K): 69.6 ± 0.7 mN/m
- viscosity ([2]; 313.15 K, 99 kPa, Liquid): 0.653 ± 0.052 mPa·s
- speed of sound ([2]; 313.15 K, 99 kPa, Liquid, Frequency=3 MHz, Sing-around technique in a fixed-path interferometer): 1529.2 ± 1.2 m/s
- surface tension liquid-gas ([2]; 323.15 K): 67.8 ± 0.7 mN/m
- viscosity ([2]; 323.15 K, 99 kPa, Liquid): 0.547 ± 0.044 mPa·s
- mass density ([2]; 323.15 K, 99 kPa, Liquid, Vibrating tube method): 988.04 ± 1 kg/m3
- refractive index ([1]; 293.15 K): 1.33297 ± 0.00031
- refractive index ([1]; 303.15 K): 1.33196 ± 0.00031
- refractive index ([1]; 313.15 K): 1.33061 ± 0.00031
- refractive index ([1]; 323.15 K): 1.32904 ± 0.00031

Structure (SMILES): O [water] + CCCC[n+]1ccccc1.F[B-](F)(F)F
- surface tension liquid-gas ([3]; 293.15 K): 72.7 ± 0.8 mN/m
- viscosity ([3]; 293.15 K): 1.002 ± 0.08 mPa·s
- surface tension liquid-gas ([3]; 303.15 K): 71.1 ± 0.8 mN/m
- viscosity ([3]; 303.15 K): 0.797 ± 0.064 mPa·s
- surface tension liquid-gas ([3]; 313.15 K): 69.6 ± 0.7 mN/m
- viscosity ([3]; 313.15 K): 0.653 ± 0.052 mPa·s
- speed of sound ([3]; 313.15 K): 1529.2 ± 1.2 m/s
- surface tension liquid-gas ([3]; 323.15 K): 67.8 ± 0.7 mN/m
- viscosity ([3]; 323.15 K): 0.547 ± 0.044 mPa·s
- mass density ([3]; 323.15 K): 988.04 ± 1 kg/m3
- refractive index ([4]; 293.15 K): 1.33297 ± 0.00031
- refractive index ([4]; 303.15 K): 1.33196 ± 0.00031
- refractive index ([4]; 313.15 K): 1.33061 ± 0.00031
- refractive index ([4]; 323.15 K): 1.32904 ± 0.00031

Structure (SMILES): O [water] + CCC[n+]1ccccc1.F[B-](F)(F)F
- surface tension liquid-gas ([3]; 293.15 K): 72.7 ± 0.8 mN/m
- viscosity ([3]; 293.15 K): 1.002 ± 0.08 mPa·s
- surface tension liquid-gas ([3]; 303.15 K): 71.1 ± 0.8 mN/m
- viscosity ([3]; 303.15 K): 0.797 ± 0.064 mPa·s
- surface tension liquid-gas ([3]; 313.15 K): 69.6 ± 0.7 mN/m
- viscosity ([3]; 313.15 K): 0.653 ± 0.052 mPa·s
- speed of sound ([3]; 313.15 K): 1529.2 ± 1.2 m/s
- surface tension liquid-gas ([3]; 323.15 K): 67.8 ± 0.7 mN/m
- viscosity ([3]; 323.15 K): 0.547 ± 0.044 mPa·s
- mass density ([3]; 323.15 K): 988.04 ± 1 kg/m3
- refractive index ([4]; 293.15 K): 1.33297 ± 0.00031
- refractive index ([4]; 303.15 K): 1.33196 ± 0.00031
- refractive index ([4]; 313.15 K): 1.33061 ± 0.00031
- refractive index ([4]; 323.15 K): 1.32904 ± 0.00031
